Experiment: Inhibition of recombinant human IDO1 expressed in yeast assessed as yeast growth restoration after 40 to 45 hrs in presence of galactose

EC50: 2000 nM
Structure (SMILES): CN1CCN(C(CO)Cc2ccccc2)CC1 (stereo unspecified)

From BindingDB's records for doi:10.1016/j.ejmech.2016.12.029 (University of Auckland, 2017)
